{"source": "paper PMC12717099", "about": "“Peptidoglycan recruitment by a penicillin binding protein” (Nature Communications, 2025)", "key": {"[1]": {"tested_on": "E. faecium D344SRF pCWR624 (PBP5 plasmid)", "experiment": "Disk diffusion assay, pCWR624", "assay_type": "cell-based, Enterococcus faecium", "settings": "strain pCWR624; 37 °C, 24 h; n=3", "protocol": "(§1) The synthetic genes were purchased from GeneWiz (South Plainfield, NJ). The ribosome binding site sequence AGGAGG (Shine-Dalgarno), and a string of five A’s followed by the sequence […], that corresponds to the first 15 bp found in pbp5 from E. faecium C68 were added upstream of the START codon. The terminator sequence […] was added downstream of the STOP codon. BamHI restriction sites were added to the flanking 5′ and 3′ ends. The synthetic genes were inserted into the vector pCWR624Δpbp5. This vector was derived from pCWR624[10], in which the pbp5 gene from D366 was excised by digestion with BamHI followed by re-ligation of the vector, allowing subsequent insertion of modified synthetic pbp5s into the BamHI site downstream of ftsWEfm and psr from E. faecium C68[10]. The synthetic genes were inserted in a BamHI site located downstream of psr. The proper orientation was confirmed by PCR amplification using the forward primer OR_pbp5_FOR_1 (5′-[…]-3′) and the reverse primer OR_pbp5_REV_1 (5′-[…]-3′). Plasmids were sequence verified for the specific binding site mutations. The resulting constructions were electroporated into the natural pbp5(-) mutant E. faecium D344SRF with a selection on brain heart infusion agar (BHI) plates containing kanamycin (1500 µg/ml).\n(§2) E. faecium strains were streaked fresh from −80 °C stored glycerol stocks onto brain heart infusion (BHI) agar plates and incubated for 18 h at 37 °C. Strains harboring the plasmid derivatives were grown under antibiotic pressure on agar plates containing kanamycin at 1500 µg/ml. A single colony was inoculated into BHI or BHI-kanamycin (1500 µg/ml) for overnight cultures (18 h).\n(§3) Antibiotic disks used were manufactured by BD BBL^TM. Disk diffusion assays were performed according to the Clinical and Laboratory Standards Institute (CLSI) guidance. Overnight cultures were inoculated into 3 ml of BHI or BHI-kanamycin (1500 µg/ml) broth with a dilution of 1:100 and incubated until an OD600 of ~0.5 was reached. […] The plates were incubated at 37 °C and the zones of inhibition were measured after 24 h. […]"}, "[2]": {"tested_on": "E. faecium D344SRF, Wild Type", "experiment": "MIC by broth microdilution, Wild Type", "assay_type": "cell-based, Enterococcus faecium", "settings": "strain Wild Type; BHI broth microdilution, 37 °C, 20 h, read by eye; n=3", "protocol": "as §2\nMIC determination was performed using a standard broth microdilution technique in duplicate from independent cultures. Overnight cultures were inoculated into 3 ml of BHI or BHI-kanamycin (1500 µg/ml) broth in a dilution of 1:100 and incubated until an OD600 of ~0.5 was reached. Cultures were diluted 1:1000 and inoculated into the 96-well plates with the corresponding antibiotics to be tested. Plates were incubated at 37 °C for 20 h and read by eye. The MICs were defined as the lowest antibiotic concentration that inhibited growth."}, "[3]": {"tested_on": "PBP5", "experiment": "Bocillin FL fluorescence polarization binding competition assay", "design": "species or system Enterococcus faecium", "settings": "antibiotic fixed 60 μM, PBP5 3.6 µM, Bocillin FL 30 nM, 37 °C, n = 3", "protocol": "The assays were performed in low-volume 384-well black polystyrene assay plate (Corning, 4511), using assay buffer (100 mM Na-phosphate pH 7.0, 0.01% Triton X-100) to prevent the adsorption of Bocillin FL (Invitrogen, B13233) to the plate. Bocillin FL was dissolved in DMSO and stored as a 1 mM stock in the −20 °C freezer. Fresh working stock of Bocillin FL was made each day for the assays by diluting the stock with the assay buffer for a final concentration of 30 nM. The final concentration of PBP5 for the assays was 3.6 µM. The antibiotic, either penicillin G, ceftaroline or ceftriaxone, was added to PBP5 before the reactions were initiated by the addition of Bocillin FL. The plate was sealed with ThermalSeal RT silicone adhesive film (EXCEL Scientific, TSS-RTQ-100) to prevent evaporation during the measurements. Reaction without PBP5 (Bocillin FL only) was used as negative control. All reactions were carried out at 37 °C in a CLARIOStar plate reader (BMG Labtech) equipped with the 482 nm excitation filter, 530 nm emission filter and a dichroic filter LP504. The focal height was adjusted to 11.3 mm and the gain was set to 10 mP using the negative control. Measurements were made at 40 s intervals for up to 75 min with 100 flashes per measurement. Three replicates were made for each treatment in each run, and the experiment was repeated 3 times."}, "[4]": {"tested_on": "E. faecium D344SRF pCWR624Δpbp5_pbp5_V3", "experiment": "Disk diffusion assay, pbp5_V3", "assay_type": "cell-based, Enterococcus faecium", "settings": "strain pbp5_V3 (loop 625-631); 37 °C, 24 h; n=3", "protocol": "as §1, §2, §3"}}, "data": [{"smiles": "CO/N=C(\\C(=O)N[C@@H]1C(=O)N2C(C(=O)O)=C(CSc3nc(=O)c(=O)[nH]n3C)CS[C@H]12)c1csc(N)n1", "note": "[Ceftriaxone, ceftriaxone]", "values": [{"measurement": "Zone Size (mm) [Range]", "setting": "[1]", "value": "0 [0] mm"}, {"measurement": "MIC (µg/ml) [Range]", "setting": "[2]", "value": "50 [25-100] µg/ml"}, {"measurement": "binding/inhibition of PBP5, in words", "setting": "[3]", "value": "does not bind/inhibit PBP5"}, {"measurement": "binding/inhibition of PBP5, in words", "setting": "[3]; listed as ceftriaxone", "value": "does not bind"}, {"measurement": "Zone Size (mm) [Range]", "setting": "[4]", "value": "28 [26-28] mm"}]}]}
